{
  "source": "patent US8026342B2",
  "about": "“Compositions and methods for binding sphingosine-1-phosphate” (Lpath, Inc., priority 2006, dated 2011)",
  "molecules": {"B1": {"name": "LT1002: murine anti-S1P monoclonal antibody, IgG1 kappa, from hybridoma clone 306D326.26 (antibody, listed as Mus sp., V domains shown)", "VH": "QAHLQQSDAELVKPGASVKISCKVSGFIFIDHTIHWMKQRPEQGLEWIGCISPRHDITKYNEMFRGKATLTADKSSTTAYIQVNSLTFEDSAVYFCARGGFYGSTIWFDFWGQGTTLTVS", "VL": "ETTVTQSPASLSMAIGEKVTIRCITTTDIDDDMNWFQQKPGEPPNLLISEGNILRPGVPSRFSSSGYGTDFLFTIENMLSEDVADYYCLQSDNLPFTFGSGTKLEIK"}},
  "key": {"DU145 tumor": {"tested_on": "DU145 tumor", "assay": "SC DU145 prostate tumor xenograft", "type": "in vivo, nude NCr (nu/nu) mice", "conditions": "LT1009 50 mg/kg ip q2d; Avastin 20 mg/kg q4d; Paclitaxel 7.5 mg/kg q1d×5", "description": "Nude mice were implanted sc near the right flank with one fragment per mouse of DU145 tumor from an in vivo passage. All treatments were initiated the day when 60 mice in each experiment established tumors ranging in size from approximately 100 to 200 mm^3. […] Paclitaxel and Avastin were administered iv and ip at a dosage of 7.5 mg/kg/dose and 20 mg/kg/dose, q1d×5 and q4d, respectively, injected in a volume of 0.1 mL/10 g body weight.\nDuring the course of the study tumor growth was monitored by measuring the sc tumors on three axes and calculating the volume. At the end of the study final tumor weights and volumes were determined and then the mice were sacrificed, the tumors harvested. Microvascular densities (MVD) of the tumors were then determined by CD-31 staining."}, "COLO205 tumor": {"tested_on": "COLO205 tumor", "assay": "SC COLO205 colorectal tumor xenograft", "type": "in vivo, nude NCr (nu/nu) mice", "description": "Nude mice were implanted sc near the right flank with one fragment per mouse of COLO 205 tumor from an in vivo passage. All treatments were initiated the day when 60 mice in each experiment established tumors ranging in size from approximately 100 to 200 mm3. […] Avastin was administered iv at a dosage of 40 mg/kg/dose on a q7d schedule, injected in a volume of 0.1 mL/20 g body weight. Paclitaxel (positive control), was administered iv at a dosage of 15 mg/kg/dose on a q1d×5 schedule, injected in a volume of 0.1 mL/10 g body weight.\nAnimals were observed daily for mortality. Tumor dimensions and body weights were collected twice weekly starting with the first day of treatment and including the day of study termination. When the median tumor in the vehicle-treated control group in each study reached approximately 4,000 mg, the study was terminated. Tumors from each animal were harvested, wet weights were recorded, tumors were processed for determination of microvascular densities (MVD) by CD-31 staining. Tumor weights (mg) were calculated using the equation for an ellipsoid sphere (l×w^2)/2=mm^3, where l and w refer to the larger and smaller dimensions collected at each measurement and assuming unit density (1 mm^3=1 mg)."}, "retinal macrophages": {"tested_on": "retinal macrophages", "assay": "Oxygen induced retinopathy (ROP) model: retinal macrophage infiltration", "type": "in vivo, C57BL/6 mice", "conditions": "5 μg intraocular at day 12, read at day 17", "description": "At day 17 of life, the mice received an intraocular injection of FITC-labeled antibody to F4/80 (a pan-macrophage marker) and after 8 hours, mice were euthanized. The globes were removed and fixed in PBS-buffered formalin at room temperature for 5 hours. Retinas were dissected and washed with phosphate-buffered saline containing 0.25% Triton X-100 and whole mounted. Slides were viewed with a Nikon Fluorescence Microscope and retinal macrophages were quantified."}, "[1]": {"assay": "GLP 28-day safety toxicology study of LT1009 in monkeys", "type": "in vivo", "description": "In addition, blood was collected from recovery animals 48, 72, 144 and 240 hours following the end of the last dose. Parameters monitored during this study included mortality, clinical signs, body weight, qualitative evaluation of the food consumption, ophthalmology, electrocardiography, and clinical pathology (hematology, clinical chemistry, coagulation and urinalysis). Blood samples were also collected for immunophenotyping assessments, at pre-treatment, on the last day of treatment, and on days 35, 42 and at the end of the recovery period. At termination, a macroscopic examination was performed and selected organs were weighed. Histological evaluation of tissues was conducted on all animals."}, "[2]": {"tested_on": "ovarian cancer (OVCAR3) cells", "assay": "S1P-induced IL-8 release from ovarian cancer cells", "type": "cell-based, human", "conditions": "1 uM S1P"}, "[3]": {"tested_on": "Matrigel plug neovascularization", "assay": "In vivo Matrigel plug assay for neovascularization (S1P, VEGF, bFGF)", "set-up": "species or system mice", "description": "Based on in vivo studies showing that S1P increased endothelial capillary growth into subcutaneously implanted Matrigel plugs, we speculated that SPHINGOMAB could reduce de novo BV formation in vivo. To investigate this, we employed the in vivo Matrigel Plug assay for neovascularization. In one set of experiments, Matrigel was supplemented with either 1 μM S1P, 0.5 μg/mL bFGF or 1 μg/mL VEGF and then […]. into mice (n=4). After 10 days, the mice were heparinized and injected with the fluorescent lectin, Isolectin B4-FITC, which binds to adhesion molecules expressed by vascular EC that form the growing BVs. The plugs were then excised, frozen in OCT, sectioned and viewed for FITC-stained BVs.\nSections of the plugs were then stained with hemotoxyln & eosin for evaluation of EC infiltration (FIG. 6B). The infiltration of ECs is a critical step in neo-vascularization. […] Cell infiltration is presumed to be ECs although we recognize that other cell types such as immune cells may also be stained.\nEndogenous S1P from the blood and surrounding tissue could supply a wound with pro-angiogenic stimuli. The ability of SPHINGOMAB to reduce endogenous S1P in a wound was investigated. Optimally stimulated plugs (Matrigel supplemented with 0.5 μg/mL bFGF or […] VEGF) were implanted into mice. Mice received i.p. injections of 25 mg/kg SPHINGOMAB or saline every 48 hrs starting 1 day prior to Matrigel implantation. Each treatment group (Matrigel, Matrigel plus GF or Matrigel plus GF and administered SPHINGOMAB) consisted of a minimum of 6 mice. After 10 days, the mice were treated with heparin, injected with Isolectin B4-FITC, the plugs excised, embedded in OCT freezing medium and sectioned."}, "[4]": {"conditions": "LT1009 25 mg/kg ip q3d, increased to 75 mg/kg on Day 21"}, "[5]": {"conditions": "LT1009 50 mg/kg ip q3d, Avastin 40 mg/kg iv q7d, Paclitaxel 15 mg/kg iv q1d×5"}, "[6]": {"conditions": "25 mg/kg i.p. every 48 hrs, 10 days"}},
  "data": [
    {"molecule": "LT1009: humanized anti-S1P IgG1/kappa mAb with Cys to Ala in HCDR2, light chain with 5 backmutations; SEQ ID NO: 31/32", "values": [
      {"measurement": "% Reduction compared to Vehicle-Treated Mice", "setting": "DU145 tumor", "result": 28, "unit": "%"},
      {"measurement": "Final Tumor Weights", "setting": "DU145 tumor", "result": 2242, "unit": "mg"},
      {"measurement": "% Reduction compared to Vehicle-Treated Mice", "setting": "COLO205 tumor; [4]", "result": 20, "unit": "%"},
      {"measurement": "Final Tumor Weights", "setting": "COLO205 tumor; [4]", "result": 2465.60, "unit": "mg"},
      {"measurement": "% Reduction compared to Vehicle-Treated Mice", "setting": "COLO205 tumor; [5]", "result": 32, "unit": "%"},
      {"measurement": "Final Tumor Weights", "setting": "COLO205 tumor; [5]", "result": 2071.17, "unit": "mg"},
      {"measurement": "# of macrophages per retina", "setting": "retinal macrophages", "result": "1136 ± 33"},
      {"measurement": "% reduction in macrophage density", "setting": "retinal macrophages", "result": 55, "unit": "%"},
      {"measurement": "% reduction in macrophage density", "setting": "retinal macrophages; listed as S1P antibody", "result": "55.4 ± 1.3", "unit": "%"},
      {"measurement": "absolute number of T cells on Day 28", "setting": "[1]; 100 mg/kg", "result": "statistically significant decrease"},
      {"measurement": "mean lymphocyte counts (+/-SD) after treatment", "setting": "[1]; 100 mg/kg, males and females combined", "result": "3.18+/−1.25 10^9 cells/L"},
      {"measurement": "tolerability", "setting": "[1]; 3, 10, 30 and 100 mg/kg every third day over 28 days", "result": "well tolerated"},
      {"measurement": "No Observed Toxic Effect Level (NOTEL)", "setting": "[1]; 30-minute i.v. infusion every third day for 28 days", "result": 100, "unit": "mg/kg"}
    ]},
    {"molecule": "B1", "values": [
      {"measurement": "reduction of S1P-induced IL-8 release", "setting": "[2]", "result": "reduced IL-8 release"},
      {"measurement": "decrease in neovascularization of VEGF-containing plugs vs saline-treated animals", "setting": "[3]; [6]", "result": 5, "unit": "fold"},
      {"measurement": "decrease in neovascularization of bFGF-containing plugs vs saline-treated animals", "setting": "[3]; [6]", "result": 8.5, "unit": "fold"},
      {"measurement": "EC infiltration into S1P-containing Matrigel plugs", "setting": "[3]; systemic, every 48 hrs", "result": "reduced amount of EC infiltration"}
    ]}
  ]
}
